Experimental data taken from patent publication EP2768830B1, “APOPTOSIS-INDUCING AGENTS FOR THE TREATMENT OF CANCER AND IMMUNE AND AUTOIMMUNE DISEASES” (AbbVie Inc., priority 2011, dated 2013).
Read-outs that look alike come from different tables or passages of the source.

Columns and labels:
[1] = target: GST-Bcl-xL (Homo sapiens, UniProt Q07817); conditions: read-out: TR-FRET binding Bcl-xL Ki
[2] = test system: mouse FL5.12 cells transfected with Bcl-XL; assay: FL5.12 cellular assay (cell viability, CellTiter-Glo); assay type: cell-based; conditions: FL5.12 cells transfected with Bcl-XL, IL-3-depleted, 3% FBS assay media, 24 hours, CellTiter-Glo, read-out: FL5.12 Bcl-xL, - IL3, EC 50;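 further: each EC50 determination derived from duplicate measurements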

GST-Bcl-xL, sequence (Q07817 whole entry): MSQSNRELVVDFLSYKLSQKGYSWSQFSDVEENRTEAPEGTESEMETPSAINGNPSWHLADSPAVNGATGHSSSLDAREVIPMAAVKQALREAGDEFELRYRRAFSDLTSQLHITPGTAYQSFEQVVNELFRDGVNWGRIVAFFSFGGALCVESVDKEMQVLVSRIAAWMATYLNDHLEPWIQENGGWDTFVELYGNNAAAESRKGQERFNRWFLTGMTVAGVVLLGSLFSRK

| SMILES | Ki [1] [µM] | EC50 ([2]; Mus musculus) [µM] | EC50 [2] [µM] |
| --- | --- | --- | --- |
| COC1(Cn2ncc(-c3ccc(N4CCc5cccc(C(=O)Nc6nc7ccccc7s6)c5C4)nc3C(=O)O)c2C)CCCC(C)(C)C1 (stereo not shown) [Example 157, 6-[8-(1,3-benzothiazol-2-ylcarbamoyl)-3,4-dihydroisoquinolin-2(1H)-yl]-3-{1-[(1-methoxy-3,3-dimethylcyclohexyl)methyl]-5-methyl-1H-pyrazol-4-yl}pyridine-2-carboxylic acid] | < 0.0001 | 0.0003 | – |
| Cc1c(-c2ccc(N3CCc4cccc(C(=O)Nc5nc6ccccc6s5)c4C3)nc2C(=O)O)cnn1Cc1ccccc1OCC1COCCO1 (stereo not shown) [Example 100, 6-[8-(1,3-benzothiazol-2-ylcarbamoyl)-3,4-dihydroisoquinolin-2(1H)-yl]-3-{1-[2-(1,4-dioxan-2-ylmethoxy)benzyl]-5-methyl-1H-pyrazol-4-yl}pyridine-2-carboxylic acid] | 0.003 | 0.066 | – |
| COCCOC1(Cn2ncc(-c3ccc(N4CCc5cccc(C(=O)Nc6nc7ccccc7s6)c5C4)nc3C(=O)O)c2C)CCCCCC1 [Example 151, 6-[8-(1,3-benzothiazol-2-ylcarbamoyl)-3,4-dihydroisoquinolin-2(1H)-yl]-3-(1-{[1-(2-methoxyethoxy)cycloheptyl]methyl}-5-methyl-1H-pyrazol-4-yl)pyridine-2-carboxylic acid] | < 0.0001 | 0.0006 | – |
| O=C(Nc1nc2ccccc2s1)c1cccc2c1CN(c1ccc(-c3cnn(C4CCc5ccccc54)c3)c(C(=O)O)n1)CC2 (stereo not shown) [Example 37, 6-[8-(1,3-benzothiazol-2-ylcarbamoyl)-3,4-dihydroisoquinolin-2(1H)-yl]-3-[1-(2,3-dihydro-1H-inden-1-yl)-1H-pyrazol-4-yl]pyridine-2-carboxylic acid] | 0.017 | 0.347 | – |
| Cc1cc(OC2CCCCC2)ccc1-c1ccc(N2CCc3cccc(C(=O)Nc4nc5ccccc5s4)c3C2)nc1C(=O)O [Example 113, 6-[8-(1,3-benzothiazol-2-ylcarbamoyl)-3,4-dihydroisoquinolin-2(1H)-yl]-3-[4-(cyclohexyloxy)-2-methylphenyl]pyridine-2-carboxylic acid] | 0.019 | > 1 | – |
| O=C(Nc1nc2ccccc2s1)c1cccc2c1CN(c1ccc(-c3cnn(Cc4ccccc4)c3-c3ccccc3)c(C(=O)O)n1)CC2 [Example 65, 6-[8-(1,3-benzothiazol-2-ylcarbamoyl)-3,4-dihydroisoquinolin-2(1H)-yl]-3-(1-benzyl-5-phenyl-1H-pyrazol-4-yl)pyridine-2-carboxylic acid] | 0.393 | > 1 | – |
| Cc1c(-c2ccc(N3CCc4cccc(C(=O)Nc5nc6ccccc6s5)c4C3)nc2C(=O)O)cnn1CC1(C)CCCCC1 [Example 82, 6-[8-(1,3-benzothiazol-2-ylcarbamoyl)-3,4-dihydroisoquinolin-2(1H)-yl]-3-{5-methyl-1-[(1-methylcyclohexyl)methyl]-1H-pyrazol-4-yl}pyridine-2-carboxylic acid] | 0.0005 | 0.008 | – |
| COC1(Cn2ncc(-c3ccc(N4CCc5cccc(C(=O)Nc6nc7ccccc7s6)c5C4)nc3C(=O)NS(C)(=O)=O)c2C)CCCC(C)(C)C1 (stereo not shown) [Example 162, N-(1,3-benzothiazol-2-yl)-2-(5-{1-[(1-methoxy-3,3-dimethylcyclohexyl)methyl]-5-methyl-1H-pyrazol-4-yl}-6-[(methylsulfonyl)carbamoyl]pyridin-2-yl)-1,2,3,4-tetrahydroisoquinoline-8-carboxamide] | < 0.0001 | 0.005 | – |
| Cc1c(-c2ccc(N3CCc4cccc(C(=O)Nc5nc6ccccc6s5)c4C3)nc2C(=O)O)cnn1Cc1ccccc1OCCN(C)C [Example 49, 6-[8-(1,3-benzothiazol-2-ylcarbamoyl)-3,4-dihydroisoquinolin-2(1H)-yl]-3-(1-{2-[2-(dimethylamino)ethoxy]benzyl}-5-methyl-1H-pyrazol-4-yl)pyridine-2-carboxylic acid] | 0.0006 | 0.012 | – |
| COC(=O)C(c1ccccc1)n1cc(-c2ccc(N3CCc4cccc(C(=O)Nc5nc6ccccc6s5)c4C3)nc2C(=O)O)cn1 (stereo not shown) [Example 95, 6-[8-(1,3-benzothiazol-2-ylcarbamoyl)-3,4-dihydroisoquinolin-2(1H)-yl]-3-[1-(2-methoxy-2-oxo-1-phenylethyl)-1H-pyrazol-4-yl]pyridine-2-carboxylic acid] | 0.011 | 0.542 | – |
| COc1ccc2nc(NC(=O)c3cccc4c3CN(c3ccc(-c5cnn(Cc6ccccc6)c5)c(C(=O)O)n3)CC4)sc2c1 [Example 11, 3-(1-benzyl-1H-pyrazol-4-yl)-6-{8-[(6-methoxy-1,3-benzothiazol-2-yl)carbamoyl]-3,4-dihydroisoquinolin-2(1H)-yl}pyridine-2-carboxylic acid] | 0.18 | – | > 1 |
| Cc1c(-c2ccc(N3CCc4cccc(C(=O)Nc5nc6ccccc6s5)c4C3)nc2C(=O)O)cnn1CC1(OCC2COCCO2)CCCCCC1 (stereo not shown) [Example 173, 6-[8-(1,3-benzothiazol-2-ylcarbamoyl)-3,4-dihydroisoquinolin-2(1H)-yl]-3-(1-{[1-(1,4-dioxan-2-ylmethoxy)cycloheptyl]methyl}-5-methyl-1H-pyrazol-4-yl)pyridine-2-carboxylic acid] | < 0.0001 | 0.0001 | – |
| N#Cc1c(-c2ccc(N3CCc4cccc(C(=O)Nc5nc6ccccc6s5)c4C3)nc2C(=O)O)cccc1N1CCCC1C12CC3CC(CC(C3)C1)C2 (stereo not shown) [Example 182, 6-[8-(1,3-benzothiazol-2-ylcarbamoyl)-3,4-dihydroisoquinolin-2(1H)-yl]-3-{2-cyano-3-[2-(tricyclo[3.3.1.1^3,7]dec-1-yl)pyrrolidin-1-yl]phenyl}pyridine-2-carboxylic acid] | 0.0002 | 0.006 | – |
| Cc1c(-c2ccc(N3CCc4cccc(C(=O)Nc5nc6ccccc6s5)c4C3)nc2C(=O)O)c(CO)nn1Cc1ccccc1 [Example 30, 6-[8-(1,3-benzothiazol-2-ylcarbamoyl)-3,4-dihydroisoquinolin-2(1H)-yl]-3-[1-benzyl-3-(hydroxymethyl)-5-methyl-1H-pyrazol-4-yl]pyridine-2-carboxylic acid] | 0.002 | 0.298 | – |
| O=C(Nc1nc2ccccc2s1)c1cccc2c1CN(c1ccc(-c3cnn(CC4CCCOC4)c3)c(C(=O)O)n1)CC2 (stereo not shown) [Example 56, 6-[8-(1,3-benzothiazol-2-ylcarbamoyl)-3,4-dihydroisoquinolin-2(1H)-yl]-3-[1-(tetrahydro-2H-pyran-3-ylmethyl)-1H-pyrazol-4-yl]pyridine-2-carboxylic acid] | 0.024 | 0.583 | – |
| Cc1c(OC2CCCCC2)cccc1-c1ccc(N2CCc3cccc(C(=O)Nc4nc5ccccc5s4)c3C2)nc1C(=O)O [Example 114, 6-[8-(1,3-benzothiazol-2-ylcarbamoyl)-3,4-dihydroisoquinolin-2(1H)-yl]-3-[3-(cyclohexyloxy)-2-methylphenyl]pyridine-2-carboxylic acid] | 0.0002 | 0.22 | – |
| O=C(Nc1nc2ccccc2s1)c1cccc2c1CN(c1ccc(-c3cnn(CC4CCNCC4)c3)c(C(=O)O)n1)CC2 [Example 135, 6-[8-(1,3-benzothiazol-2-ylcarbamoyl)-3,4-dihydroisoquinolin-2(1H)-yl]-3-[1-(piperidin-4-ylmethyl)-1H-pyrazol-4-yl]pyridine-2-carboxylic acid] | 0.078 | > 1 | – |
| COCCC1(Cn2ncc(-c3ccc(N4CCc5cccc(C(=O)Nc6nc7ccccc7s6)c5C4)nc3C(=O)NS(C)(=O)=O)c2C)CCCCCC1 [Example 148, N-(1,3-benzothiazol-2-yl)-2-{5-(1-{[1-(2-methoxyethyl)cycloheptyl]methyl}-5-methyl-1H-pyrazol-4-yl)-6-[(methylsulfonyl)carbamoyl]pyridin-2-yl}-1,2,3,4-tetrahydroisoquinoline-8-carboxamide] | < 0.0001 | 0.013 | – |
| Cc1c(-c2ccc(N3CCc4cccc(C(=O)Nc5nc6ccccc6s5)c4C3)nc2C(=O)O)cnn1Cc1ccccc1OCC(C)(CO)CO [Example 98, 6-[8-(1,3-benzothiazol-2-ylcarbamoyl)-3,4-dihydroisoquinolin-2(1H)-yl]-3-(1-{2-[3-hydroxy-2-(hydroxymethyl)-2-methylpropoxy]benzyl}-5-methyl-1H-pyrazol-4-yl)pyridine-2-carboxylic acid] | 0.002 | 0.421 | – |
| Cc1c(-c2ccc(N3CCc4cccc(C(=O)Nc5nc6ccccc6s5)c4C3)nc2C(=O)O)cnn1CC1CCCOC1 (stereo not shown) [Example 66, 6-[8-(1,3-benzothiazol-2-ylcarbamoyl)-3,4-dihydroisoquinolin-2(1H)-yl]-3-[5-methyl-1-(tetrahydro-2H-pyran-3-ylmethyl)-1H-pyrazol-4-yl]pyridine-2-carboxylic acid] | 0.003 | 0.06 | – |
| Cc1c(-c2ccc(N3CCc4cccc(C(=O)Nc5nc6ccccc6s5)c4C3)nc2C(=O)O)ccnc1OC1CCCCC1 [Example 138, 6-[8-(1,3-benzothiazol-2-ylcarbamoyl)-3,4-dihydroisoquinolin-2(1H)-yl]-2'-(cyclohexyloxy)-3'-methyl-3,4'-bipyridine-2-carboxylic acid] | < 0.0001 | > 1 | – |
| O=C(Nc1nc2ccccc2s1)c1cccc2c1CN(c1ccc(-c3cnn(-c4ccccc4)c3)c(C(=O)O)n1)CC2 [Example 23, 6-[8-(1,3-benzothiazol-2-ylcarbamoyl)-3,4-dihydroisoquinolin-2(1H)-yl]-3-(1-phenyl-1H-pyrazol-4-yl)pyridine-2-carboxylic acid] | 0.182 | > 1 | – |
| O=C(Nc1nc2ccccc2s1)c1cccc2c1CN(c1ccc(-c3cnn(Cc4ccc(Cl)cc4)c3)c(C(=O)O)n1)CC2 [Example 15, 6-[8-(1,3-benzothiazol-2-ylcarbamoyl)-3,4-dihydroisoquinolin-2(1H)-yl]-3-[1-(4-chlorobenzyl)-1H-pyrazol-4-yl]pyridine-2-carboxylic acid] | 0.035 | – | > 1 |
